{"source": "patent US10196421B2", "about": "“Nucleophile-reactive sulfonated compounds for the (radio)labelling of (bio)molecules; precursors and conjugates thereof” (Advanced Accelerator Applications SA, priority 2012, dated 2019)", "experiment": "solubility of Cy 5.5 before and after conjugation with the sulfonated prosthetic compound", "type": "physicochemical", "details": "unconjugated precursor", "text": "This fact confirms that the present invention enables to increase the hydrophilic character of the (bio)molecules conjugated therewith."}
{"substance": "Cy 5.5", "values": [{"measurement": "solubility in water", "value": "water insoluble"}]}
